Source: patent publication US20240043386A1, “Modulators of the Cystic Fibrosis Transmembrane Conductance Regulator Protein and Methods of Use” (AbbVie Global Enterprises Ltd., priority 2021, published 2024)
Read-outs that look alike come from different tables or passages of the source.

Columns and labels:
[1] = molecular target: T1, F508del/F508del CFTR (Homo sapiens, UniProt P13569, DEL508-508); experiment: Trans-Epithelial Current Clamp (TECC) assay using primary human bronchial epithelial cells; format: cell-based; conditions: for Emax (% Dual): maximum percent activity relative to positive control (co-corrector 0.15 μM + potentiator 0.45 μM = 100%), primary hBE cells F508del/F508del; for EC50: primary hBE cells homozygous F508del/F508del, test C2 corrector with co-corrector and potentiator, 18-24 hours at 37° C., equivalent CFTR current (IEQ)/AUC
T1 construct: cells isolated from CF patients with the homozygous mutation; endogenous in cells; host or cells: primary human bronchial epithelial (hBE) cells from CF patients homozygous for F508del
Excerpt: A cell-based assay was developed using the primary human bronchial epithelial cells (hBE cells) with F508del/F508del CFTR and other mutations.
Primary human bronchial epithelial (hBE) cells from CFTR patients with homozygous F508del/F508del mutation were expanded from 1×10^6 to 250×10^6 cells (Neuberger, T et al., 2011, Methods Mol Biol 741:39-54). For this purpose, cells isolated from CF patients with the homozygous mutation, procured from the CF center tissue procurement and cell culture core at the Marsico Lung Institute at UNC (Randell), the Cystic Fibrosis translational research center at McGill University (University), and Rosalind Franklin University Medical School (RFUMS) were seeded onto 24 well Corning (Cat #3378) filter plates that were coated with 3T3 conditioned media and grown at an air-liquid interface for 35 days using an Ultroser® G supplemented differentiation media. All the primary human bronchial epithelial cells were collected in accordance with institutional review board approval protocols. Apical surface mucus was removed 72 hours before the experiment by incubating the apical surface of the cells for 30 minutes with 3 mM dithiothreitol (DTT) prepared in Dulbecco's phosphate buffered saline (DPBS) with Ca^2+ and Mg^2+. This was followed with aspiration of the mucus from the apical surface along with DPBS. The apical surface was re-washed with phosphate buffered saline (PBS) incubated for 30 minutes followed with aspiration. These hBE cells were then incubated with the desired concentrations of the test C2 corrector compounds along with co-corrector, 4-[(2R,4R)-4-({[1-(2,2-difluoro-1,3-benzodioxol-5-yl)cyclopropyl]carbonyl}amino)-7-(difluoromethoxy)-3,4-dihydro-2H-chromen-2-yl]benzoic acid and potentiator, (5-{3-amino-5-[4-(trifluoromethoxy)benzene-1-sulfonyl]pyridin-2-yl}-1,3,4-oxadiazol-2-yl)methanol, for 18-24 hours at 37° C., 5% CO2. The desired concentrations of the correctors and potentiator compounds were prepared from the 10 mM stocks in differentiation media and were always applied on the basolateral side of the epithelial cells. We also used an assay format where a fixed concentration of potentiator was added chronically along with the corrector compounds. This chronic treatment with the potentiator helped eliminate any interaction that might happen with CFTR modulators (correctors and potentiators) and thereby determined the true efficacy of the modulator combinations reflective of clinical relevance.
The assay uses a Transepithelial Current Clamp (TECC) (Vu, C B et al., 2017; J Med Chem 60:458-473) instrument that can measure the functionality of the mutated channel by measuring the equivalent CFTR current (IEQ) generated by the polarized primary epithelial cells. We used a TECC-24 with a 24-channel electrode manifold allowing for the simultaneous measurement of the transepithelial voltage, VT, and transepithelial resistance, RT, under current clamp conditions, from 24 filters using a 24 well Costar filter plate. The design of the filters in the 24 well filter plates was exactly the same as the design of an individual Transwell filter used in the classical Ussing Chamber with a surface area of 0.33 cm^2. Each measured VT values were corrected for the electrode offset potential measured using buffer alone in a separate plate, and each measured RT values were then corrected for the combined solution series and empty filter resistances. The corrected VT and RT values were then used to calculate the equivalent current, IEQ using Ohm's law (IEQ=VT/RT). The area under the curve (AUC) for the time period between the forskolin peak IEQ response and at the time of bumetanide addition was also calculated using a one-third trapezoid method, in addition to calculating the IEQ. The assay was run in a 24-well format and all 24-wells were measured at the same time point giving a higher throughput for this assay. […]

[2] = molecular target: T2, F508delCFTR (Homo sapiens, UniProt P13569, DEL508-508); experiment: Cell Surface Expression-Horse Radish Peroxidase (CSE-HRP) assay in CFBE41o-F508delCFTR-HRP cells; format: cell-based; conditions: for EC50: CFBE41o-F508delCFTR-HRP cells, 18-24 hours at 33° C., luminescence; for Maximum % activity (without co-corrector): normalized to on-plate positive control corrector (2 μM)
T2 construct: expressed in transfected cells; host or cells: CFBE41o- human lung-derived epithelial cell line, doxycycline-inducible expression
Protocol: A cellular assay for measuring the F508delCFTR cell surface expression after correction with test compounds either without or with a co-corrector (2 μM of 3-[(2R,4R)-4-({[1-(2,2-difluoro-1,3-benzodioxol-5-yl)cyclopropyl]carbonyl}amino)-7-methoxy-3,4-dihydro-2H-chromen-2-yl]benzoic acid), was developed in human lung derived epithelial cell line (CFBE4lo-) (Veit G et al, (2012) Mol Biol Cell. 23(21): 4188-4202). The development was achieved by expressing the F508delCFTR mutation along with a horseradish peroxidase (HRP) in the fourth exofacial loop, and then measuring the HRP activity using luminescence readout from these cells, CFBE4lo-F508delCFTR-HRP, that were incubated overnight with the test corrector compounds, either without or with the co-corrector. For this primary assay, the CFBE4lo-F508delCFTR-HRP cells were plated in 384-well plates (Greiner Bio-one; Cat 781080) at 4,000 cells/well along with 0.5 μg/mL doxycycline to induce the F508delCFTR-RP expression and further incubated at 37° C., 5% CO2 for 68-72 hours. The test compounds were then added either without or with a co-corrector at the required concentrations and further incubated for 18-24 hours at 33° C. The highest concentration tested was 20 μM or 30 μM (GI-1 to GIII-36) with an 8-point concentration response curve using a 3-fold dilution in both the test compound without or with the co-corrector. Three replicate plates were run to determine one EC50. All plates contained negative controls (dimethyl sulfoxide, DMSO) and positive control (2 μM or 3 μM (GI-1 to GIII-36) of 3-[(2R,4R)-4-({[1-(2,2-difluoro-1,3-benzodioxol-5-yl)cyclopropyl]carbonyl}amino)-7-methoxy-3,4-dihydro-2H-chromen-2-yl]benzoic acid) as well as on-plate concentration response of the positive control. Post incubation, the plates were washed 5× times with Dulbecco's phosphate buffered saline (DPBS), followed by the addition of the HRP substrate, luminol (50 μL), and measuring the HRP activity using luminescence readout on EnVision® Multilabel Plate Reader (Perkin Elmer; product number 2104-0010). The raw counts from the experiment were analyzed using Accelrys® Assay Explorer v3.3.
Z′ greater than 0.5 was used as passing quality control criteria for the plates. The Z′ is defined as:
1−[3*SDPositive Control+3*SDNegative Control/Absolute (MeanPositive Control−MeanNegative Control)]
The % activity measured at each of the 8 test concentrations of the test compound added either without or with a co-corrector (2 μM or 3 μM (GI-1 to GIII-36) of 3-[(2R,4R)-4-({[1-(2,2-difluoro-1,3-benzodioxol-5-yl)cyclopropyl]carbonyl}amino)-7-methoxy-3,4-dihydro-2H-chromen-2-yl]benzoic acid) was normalized to the on-plate positive control using the following formulae:
% activity (Test compound without co-corrector)=[(test compound without co-corrector response−DMSO response)/(positive control response−DMSO response)]*100
% activity (Test compound with co-corrector)=[(test compound with co-corrector response−DMSO response)/(positive control response−DMSO response)]*100
The maximum % activity achieved for the test compound either without or with a co-corrector at any tested concentration is presented in Table 3 along with the respective EC50's calculated using the following general sigmoidal curve with variable Hill slope equation (described as Model 42 in the Accelrys® Assay Explorer v3.3 software):
General sigmoidal curve with concentration, response, top, bottom, EC50 and Hill slope. This model describes a sigmoidal curve with an adjustable baseline, a. The equation can be used to fit curves where response is either increasing or decreasing with respect to the independent variable, “x”.

[3] = with co-corrector (2 μM), read-out: EC50 (with co-corrector)
[4] = without co-corrector, read-out: EC50 (without co-corrector)

T1 sequence (P13569 with tags, fused parts or gaps DEL508-508): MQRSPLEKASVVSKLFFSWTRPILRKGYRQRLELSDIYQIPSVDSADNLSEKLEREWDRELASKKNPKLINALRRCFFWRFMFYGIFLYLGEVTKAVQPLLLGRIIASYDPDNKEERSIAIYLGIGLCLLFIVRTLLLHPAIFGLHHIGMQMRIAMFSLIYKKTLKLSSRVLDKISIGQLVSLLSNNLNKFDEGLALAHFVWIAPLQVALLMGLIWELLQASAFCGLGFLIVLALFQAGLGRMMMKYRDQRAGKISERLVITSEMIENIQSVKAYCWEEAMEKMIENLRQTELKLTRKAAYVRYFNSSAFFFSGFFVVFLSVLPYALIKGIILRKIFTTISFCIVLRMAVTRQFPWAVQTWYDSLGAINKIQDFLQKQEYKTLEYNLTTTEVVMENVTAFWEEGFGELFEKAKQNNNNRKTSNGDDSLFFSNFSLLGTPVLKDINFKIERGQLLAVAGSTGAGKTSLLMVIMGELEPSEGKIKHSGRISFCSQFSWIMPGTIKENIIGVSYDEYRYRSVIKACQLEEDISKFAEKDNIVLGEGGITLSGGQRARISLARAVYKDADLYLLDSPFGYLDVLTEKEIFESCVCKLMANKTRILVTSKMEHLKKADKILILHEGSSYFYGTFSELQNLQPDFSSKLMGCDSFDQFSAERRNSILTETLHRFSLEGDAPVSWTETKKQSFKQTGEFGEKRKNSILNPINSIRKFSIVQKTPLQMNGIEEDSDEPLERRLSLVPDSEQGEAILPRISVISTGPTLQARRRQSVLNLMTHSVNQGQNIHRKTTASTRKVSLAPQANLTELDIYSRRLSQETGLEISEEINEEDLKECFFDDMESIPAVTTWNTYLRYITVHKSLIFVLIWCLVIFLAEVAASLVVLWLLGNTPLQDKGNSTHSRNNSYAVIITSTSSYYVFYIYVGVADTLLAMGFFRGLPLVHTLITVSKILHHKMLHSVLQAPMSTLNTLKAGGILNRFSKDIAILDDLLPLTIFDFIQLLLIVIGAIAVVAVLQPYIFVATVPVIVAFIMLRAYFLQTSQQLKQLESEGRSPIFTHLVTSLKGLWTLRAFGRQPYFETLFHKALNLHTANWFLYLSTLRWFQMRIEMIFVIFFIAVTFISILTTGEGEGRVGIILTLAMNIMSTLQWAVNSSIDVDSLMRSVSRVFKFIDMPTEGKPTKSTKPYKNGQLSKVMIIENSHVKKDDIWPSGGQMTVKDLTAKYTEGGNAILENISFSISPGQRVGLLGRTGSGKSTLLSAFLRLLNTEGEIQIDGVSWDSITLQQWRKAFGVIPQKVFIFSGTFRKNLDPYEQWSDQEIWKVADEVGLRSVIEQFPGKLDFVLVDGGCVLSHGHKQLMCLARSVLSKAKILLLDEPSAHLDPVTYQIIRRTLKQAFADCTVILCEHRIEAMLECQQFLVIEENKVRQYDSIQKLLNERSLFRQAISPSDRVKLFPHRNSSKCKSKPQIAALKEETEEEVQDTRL
T2 sequence (P13569 with tags, fused parts or gaps DEL508-508): as above

Row | Emax (% Dual) [1] | EC50 [1] | EC50 [2, 3] | EC50 [2, 4] | Maximum % activity (without co-corrector) ([2]; without co-corrector, 2 µM) | Maximum % activity (without co-corrector) ([2]; without co-corrector) | SMILES
1 | 250 % Dual | 1 nM | 203 nM | 244 nM | 716% |  | COc1ccc(C)cc1[C@@]1(C(=O)NS(=O)(=O)c2cccc3nc(C)ccc23)C[C@H]1c1cccc(F)c1 (single isomer, unassigned) [Example 20]
2 | 270 % Dual | 1.3 nM |  | 198 nM |  |  | COc1ccc(C)cc1[C@]1(C(=O)NS(=O)(=O)c2cccc3nc(C)ccc23)C[C@@H]1c1ccc(C(F)(F)F)cc1 (single isomer, unassigned) [Example 18]
3 | 397 % Dual | 32.7 nM | 825 nM | 2300 nM |  |  | COc1ccc(C)cc1[C@]1(C(=O)NS(=O)(=O)c2cccc3nc(C)ccc23)C[C@@H]1c1cnc(OC)c(Cl)c1 [Example 102, (1S,2R)-2-(5-chloro-6-methoxypyridin-3-yl)-1-(2-methoxy-5-methylphenyl)-N-(2-methylquinoline-5-sulfonyl)cyclopropane-1-carboxamide]
4 | 402 % Dual | 36.2 nM | 635 nM | 1650 nM |  | 939% | COc1cncc([C@H]2C[C@@]2(C(=O)NS(=O)(=O)c2cccc3nc(C)ccc23)c2cc(C)ccc2OC)n1 (single isomer, unassigned) [Example 75]
5 | 304 % Dual | 2.6 nM | 417 nM | 951 nM |  |  | COc1cccc([C@H]2C[C@@]2(C(=O)NS(=O)(=O)c2cccc3nc(C)ccc23)c2cc(C)ccc2OC)c1 (single isomer, unassigned) [Example 28]
6 | 407 % Dual | 0.51 nM | 327 nM | 479 nM |  |  | COc1ccc(C)cc1[C@]1(C(=O)NS(=O)(=O)c2cccc3nc(C)ccc23)C[C@@H]1c1cccc(C(F)(F)F)c1 (racemic) [Example 12, rac-(1r,2s)-1-(2-methoxy-5-methylphenyl)-N-(2-methylquinoline-5-sulfonyl)-2-[3-(trifluoromethyl)phenyl]cyclopropane-1-carboxamide]
7 | 246 % Dual | 7 nM |  |  |  |  | COc1ccc([C@H]2C[C@@]2(C(=O)NS(=O)(=O)c2cccc3nc(C)ccc23)c2cc(C)ccc2OC)c(OC)n1 (single isomer, unassigned) [Example 94]
8 | 294 % Dual | 6.2 nM | 259 nM | 327 nM |  |  | COc1ccc(C)cc1[C@]1(C(=O)NS(=O)(=O)c2cccc3nc(C)ccc23)C[C@@H]1c1cccc(C(F)(F)F)c1 (single isomer, unassigned) [Example 23]
9 | 253 % Dual | 15.2 nM |  |  |  |  | CCOc1cnc([C@H]2C[C@@]2(C(=O)NS(=O)(=O)c2cccc3nc(C)ccc23)c2cc(C)ccc2OC)cn1 (single isomer, unassigned) [Example 66]
10 | 246 % Dual | 33.2 nM |  |  |  |  | COc1ccc(C)cc1[C@]1(C(=O)NS(=O)(=O)c2cccc3nc(C)ccc23)C[C@@H]1c1cnc(OC)c(C)n1 [Example 83, (1S,2S)-1-(2-methoxy-5-methylphenyl)-2-(5-methoxy-6-methylpyrazin-2-yl)-N-(2-methylquinoline-5-sulfonyl)cyclopropane-1-carboxamide]
11 | 288 % Dual | 11.3 nM |  |  |  |  | CCOc1ncccc1[C@H]1C[C@@]1(C(=O)NS(=O)(=O)c1cccc2nc(C)ccc12)c1cc(C)ccc1OC (single isomer, unassigned) [Example 71]
12 | 194 % Dual | 804 nM |  |  |  |  | COc1ccc(C)cc1[C@@]1(C(=O)NS(=O)(=O)c2cccc3nc(C)ccc23)CC1c1ccc(C)nc1 (stereo in doubt) [Example 10, (1R,2S)-1-(2-methoxy-5-methylphenyl)-2-(6-methylpyridin-3-yl)-N-(2-methylquinoline-5-sulfonyl)cyclopropane-1-carboxamide]
13 | 342 % Dual | 33.7 nM |  |  |  |  | COc1ccc(C)cc1[C@]1(C(=O)NS(=O)(=O)c2cccc3nc(C)ccc23)C[C@@H]1c1cnc(C(C)C)cn1 (single isomer, unassigned) [Example 64]
14 | 350 % Dual | 3.8 nM |  |  |  |  | COc1ccc(C)cc1[C@]1(C(=O)NS(=O)(=O)c2cccc3nc(C)ccc23)C[C@@H]1c1cnc(OC)c(OC)c1 [Example 104, (1S,2R)-2-(5,6-dimethoxypyridin-3-yl)-1-(2-methoxy-5-methylphenyl)-N-(2-methylquinoline-5-sulfonyl)cyclopropane-1-carboxamide]
